# US20100016445A1, “TRANSDERMAL DIETHYLSTILBESTROL FOR TREATING PROSTATE CANCER” (Oregon Health and Science University, priority 2006, published 2010)
# Key:
# [1] = Mouse Experiment #1: DES in mouse plasma by TSQ-ESI-MS after i.p. injection or topical DES cream; assay type: in vivo; conditions: ip, 0.75 mg, DES i.p. 0.75 mg, read-out: DES Amount in plasma
# Protocol: 375 mg of diethylstilbestrol (DES; Sigma, cat #D4628) was then added to 2.5 ml of the lecithin solution and combined with 10 ml of the 20% poloxamer solution. This combination was stirred overnight at room temperature. The result was a viscous 3% (g/ml) DES cream, of which 0.25 ml was applied to each mouse resulting in a topical dose of approximately 7.5 mg.
# 100 μl samples of commercial BALB/C mouse plasma containing the following concentrations of DES were used to produce a standard curve: 0, 0.01, 0.02, 0.05, 0.08, 0.1, 0.2, 0.5, 0.8, 1.0 (nanograms of DES per milliliter of mouse plasma). Each plasma standard was spiked with 10 μl of d8-DES (Isotech, cat #614289) used as an internal standard. Prior to the next step, samples taken from live mice were exposed to 5 μl of β-glucuronidase (Sigma, cat #G7017) and incubated at 37° C. for 70 minutes at 100 rpm. The enzymatic reaction was necessary in order to separate the DES molecule from any conjugated glucoronic acid that may be present. Following this incubation, 10 μl of 6M perchloric acid and 50 μl of acetonitrile were added. Each sample was then mixed for 2 minutes, following by centrifugation at 17,000×g for 5 minutes at 5° C. The supernatant was combined with 40 μl of 0.75M potassium carbonate and mixed for 30 seconds. Precipitated potassium perchlorate was removed by centrifugation at 17,000×g for 5 minutes at 5° C. […]
# [2] = Mouse Experiment #2: DES in mouse plasma by TSQ-ESI-MS after three cream applications or i.p. injection; assay type: in vivo, athymic nude mice; conditions: athymic nude, ip, DES i.p. 0.75 mg, β-glucuronidase, read-out: DES Amount in plasma
# Protocol: 100 μl samples of commercial BALB/C mouse plasma containing the following concentrations of DES were used to produce a standard curve: 0, 0.01, 0.02, 0.05, 0.08, 0.1, 0.2, 0.5, 0.8, 1.0 (nanograms of DES per milliliter of mouse plasma). Each plasma standard was spiked with 10 μl of d8-DES (Isotech, cat #614289) used as an internal standard. Prior to the next step, samples taken from live mice were exposed to 5 μl of β-glucuronidase (Sigma, cat #G7017) and incubated at 37° C. for 70 minutes at 100 rpm. The enzymatic reaction was necessary in order to separate the DES molecule from any conjugated glucoronic acid that may be present. Following this incubation, 10 μl of 6M perchloric acid and 50 μl of acetonitrile were added. Each sample was then mixed for 2 minutes, following by centrifugation at 17,000×g for 5 minutes at 5° C. The supernatant was combined with 40 μl of 0.75M potassium carbonate and mixed for 30 seconds. Precipitated potassium perchlorate was removed by centrifugation at 17,000×g for 5 minutes at 5° C. The resulting supernatant was subjected to TSQ-ESI-MS. The chromatography conditions were the following: 25 μl metal loop, 10 μl no waste injection; oven 22° C.; flow rate 0.3 ml/min; solvents: A=water, C=MeOH; column: Hypersil Gold 100×2.1 mm, 5 μm bore (Thermo Scientific, catalog #25005-102130; with guard column). […]
# [3] = test system: dihydrotestosterone and testosterone; assay: Mouse Experiment #2: radioimmunoassay for androgen suppression by DES; assay type: in vivo, athymic nude mice; conditions: DES i.p., 1 hour (used as baseline)
# Protocol: Six athymic nude mice (Harlan) were used for this experiment. As above, mouse 1 received a 100 μl injection of a 7.5% DES solution in DMSO, for a total dose of […]. Mice 2, 3, 4, 5, and 6 received three applications of 0%, 0.5%, 1%, 2%, and 3% DES cream at 24 h intervals. 24 h following the final cream application and 1 h post-injection, blood was taken from each mouse by cardiac puncture. Each cardiac puncture sample was combined with 0.1 ml sodium heparin (50 mg/ml; Sigma, cat #). Blood plasma was isolated from each sample by centrifugation at 4,000 rpm for 15 minutes. This yielded approximately 0.2 to 0.4 ml of plasma from each sample.
# A radioimmunoassay that detects both dihydrotestosterone and testosterone was used to assess androgen suppression by DES.
# [4] = patients receiving 5 mg of DES per day, oral; cited from earlier work
# hot flashes = conditions: DES 1 mg per day, cited from earlier work
# [5] = oral, versus conventional ADT, non-metastatic prostate cancer; cited from earlier work
# coagulation factors = conditions: in vivo; cited from earlier work
# [6] = cited from earlier work
# [7] = PEP group, 915 men, median follow-up 27 months
compound,measurement,setting,value
"CCC(=C(CC)c1ccc(O)cc1)c1ccc(O)cc1 [DES, 4-[4-(4-hydroxyphenyl)hex-3-en-3-yl]phenol]",concentration at 1 h,[1]; no β-glucuronidase,0.089 ng/mL
same,concentration at 1 h,[1]; β-glucuronidase sample prep,1.48 ng/mL
same,concentration at 1 h,[2],1.93 ng/mL
same,[testosterone],[3],143 pg/mlI
same,"increase in non-cancer related deaths, mostly cardiovascular",[4],36%
same,patients with significant improvement of hot flashes,hot flashes; remaining patients,14%
same,patients with resolution of hot flashes,hot flashes,86%
same,urinary N-telopeptide levels (marker for bone turnover),[5],significantly lower
"C[C@]12CC[C@@H]3c4ccc(O)cc4CC[C@H]3[C@@H]1CC[C@@H]2O [transdermal estradiol, estradiol]",F1.2,coagulation factors,did not affect
polyoestradiol phosphate [PEP],non-fatal cardiovascular events: heart failure,[6]; [7],4.4%
same,non-fatal cardiovascular events: ischemic heart disease,[6]; [7],3.7%
same,cardiovascular or thromboembolic complications,"[6]; phase I, intramuscular, 12 patients, median 12.9 months",did not cause any
same,Antithrombin III activity,coagulation factors,significant decrease
same,Factor VII,coagulation factors,no change
same,Fibrinogen,coagulation factors,unchanged
